Laboratory results as given in DBAASP.
≈ marks a conversion by molar mass, not a printed value. Where “and” joins values, the source holds several entries; their conditions need not be identical. Equal values may be shown once.

Columns and labels:
Assay in all cases: ≥ marks a high value that may be exact or a test limit, other limits are often not marked, values filed in µg/mL are converted to µM
[1] = tested on: Pseudomonas aeruginosa ATCC 27853
[2] = tested on: Staphylococcus aureus ATCC 12493
[3] = tested on: Staphylococcus aureus NCTC 10788
[4] = tested on: Candida albicans NCYC 1467
[5] = tested on: Escherichia coli NCTC 10418
[6] = tested on: Candida albicans NCPF 1467
Fusarium solani = tested on: Fusarium solani
[7] = tested on: Escherichia coli ATCC 25922
[8] = tested on: Bacillus subtilis ATCC 23857
[9] = tested on: Pectobacterium carotovorum
[10] = tested on: Xanthomonas campestris pv. citri
Fusarium oxysporum = tested on: Fusarium oxysporum
[11] = tested on: Staphylococcus aureus ATCC 25923
Trichoderma asperellum = tested on: Trichoderma asperellum
[12] = tested on: Cryptococcus neoformans ATCC 28957
[13] = tested on: Fusarium oxysporum f.sp. vasinfectum
[14] = tested on: Bacillus cereus ATCC 14579
[15] = tested on: Pseudomonas syringae pv. tabaci
Ramulariopsis gossypii = tested on: Ramulariopsis gossypii
[16] = tested on: Candida albicans ATCC 90028
[17] = tested on: Enterococcus faecalis ATCC 29212
[18] = tested on: Staphylococcus aureus ATCC 29213
[19] = tested on: Salmonella enterica subsp. enterica serovar Pullorum C79-13
[20] = tested on: Staphylococcus epidermidis ATCC 12228
[21] = tested on: Salmonella typhimurium ATCC 7731
[22] = tested on: Staphylococcus aureus ATCC 43300
[23] = tested on: Bacillus subtilis CMCC 63501
Escherichia coli UB1005 = tested on: Escherichia coli UB1005
[24] = tested on: Salmonella enterica subsp. enterica serovar Pullorum ATCC 7913
Candida albicans = tested on: Candida albicans
[25] = tested on: Candida tropicalis CGMCC 2.1975
Escherichia coli 1005 = tested on: Escherichia coli 1005
[26] = tested on: Candida krusei CGMCC 2.1857
[27] = tested on: Candida parapsilosis CGMCC 2.3989
[28] = tested on: Salmonella enterica subsp. enterica serovar Typhimurium ATCC 14028
[29] = tested on: Candida albicans CGMCC 2.2086
[30] = tested on: Serratia marcescens ATCC 8100
Escherichia coli D21 = tested on: Escherichia coli D21
Bacillus megaterium Bm11 = tested on: Bacillus megaterium Bm11
Escherichia coli ML-35 = tested on: Escherichia coli ML-35
[31] = tested on: Escherichia coli K12 MG1655

In the case of `CC[C@H](C)[C@@H]1NC(=O)[C@H](CO)NC(=O)[C@H](CCCCN)NC(=O)[C@H]([C@@H](C)O)NC(=O)[C@H](Cc2c[nH]c3ccccc23)NC(=O)[C@@H](NC(=O)CNC(=O)[C@H](CCCN=C(N)N)NC(=O)[C@H](CC(C)C)NC(=O)[C@H](C)N)CSSC[C@@H](C(=O)N[C@@H](CCCCN)C(N)=O)NC(=O)[C@@H]2CCCN2C(=O)[C@H](CCCCN)NC(=O)[C@@H]2CCCN2C(=O)[C@@H]2CCCN2C1=O` [ALRGCWTKSIPPKPCK], the MIC [1] is reported as > 512 µM, the MIC [2] is reported as ≥ 512 µM and the MIC [3] is reported as ≥ 512 µM. The MIC [4] was ≥ 512 µM and the MIC [5] was ≥ 512 µM.

For `CC[C@H](C)[C@H](NC(=O)CN)C(=O)NCC(=O)NCC(=O)N[C@@H](C)C(=O)N[C@@H](CC(C)C)C(=O)N[C@@H](CC(C)C)C(=O)N[C@@H](CO)C(=O)N[C@@H](Cc1ccccc1)C(=O)NCC(=O)N[C@@H](CCCCN)C(=O)N[C@@H](CO)C(=O)N[C@@H](C)C(=O)N[C@@H](CC(C)C)C(=O)N[C@@H](CCCCN)C(=O)NCC(=O)N[C@@H](CC(C)C)C(=O)N[C@@H](C)C(=O)N[C@@H](CCCCN)C(=O)NCC(=O)N[C@@H](CC(C)C)C(=O)N[C@@H](C)C(=O)N[C@@H](CCC(=O)O)C(=O)N[C@@H](Cc1cnc[nH]1)C(=O)N[C@@H](Cc1ccccc1)C(N)=O` [GIGGALLSFGKSALKGLAKGLAEHF], the MIC [1] was 26.2 µM (≈ 64 µg/mL), the MIC [6] was 1.64 µM (≈ 4 µg/mL) and the MIC [2] was 6.55 µM (≈ 16 µg/mL). For the same compound, the MIC [3] was 1.64 µM (≈ 4 µg/mL) and the MIC [5] was 6.55 µM (≈ 16 µg/mL).

With `CSCC[C@H](NC(=O)[C@H](Cc1ccccc1)NC(=O)CNC(=O)[C@H](Cc1cnc[nH]1)NC(=O)[C@H](CC(C)C)NC(=O)[C@H](CO)NC(=O)CN)C(=O)N[C@@H](Cc1ccc(O)cc1)C(=O)N[C@@H](CCCN=C(N)N)C(=O)N[C@@H](Cc1ccc(O)cc1)C(=O)N[C@@H](CC(C)C)C(=O)N[C@@H](CCCCN)C(=O)N[C@@H](CC(N)=O)C(=O)N[C@@H](CCSC)C(=O)N[C@H](C(=O)N[C@@H](CC(C)C)C(=O)N[C@@H](CC(N)=O)C(=O)N[C@@H](CC(C)C)C(=O)N[C@@H](Cc1ccccc1)C(N)=O)C(C)C` [GSLHGFMYRYLKNMVLNLF] the MIC [1] was 32 µM (≈ 73.7 µg/mL), the MIC (Fusarium solani) was 16 µM (≈ 36.8 µg/mL) and the MIC [7] was 32 µM (≈ 73.7 µg/mL). For the same compound, the MIC [8] was 8 µM (≈ 18.4 µg/mL), the MIC [9] was ≥ 128 µM and the MIC [10] was ≥ 64 µM. For the same compound, the MIC (Fusarium oxysporum) was ≥ 32 µM, the MIC [11] was 4 µM (≈ 9.21 µg/mL) and the MIC (Trichoderma asperellum) was ≥ 32 µM. For the same compound, the MIC [12] was 8 µM (≈ 18.4 µg/mL), the MIC [13] was 8 µM (≈ 18.4 µg/mL) and the MIC [14] was ≥ 64 µM. The MIC [15] was 16 µM (≈ 36.8 µg/mL), the MIC (Ramulariopsis gossypii) was 4 µM (≈ 9.21 µg/mL) and the MIC [16] was 2.67 µM (≈ 6.15 µg/mL).

Compound `CC[C@H](C)[C@H](N)C(=O)N[C@@H](Cc1cnc[nH]1)C(=O)N[C@@H](CCCCN)C(=O)N[C@@H](Cc1ccccc1)C(=O)N[C@@H](Cc1c[nH]c2ccccc12)C(=O)N[C@@H](CCCN=C(N)N)C(=O)NCC(=O)NCC(=O)N[C@@H](CCCN=C(N)N)C(=O)N[C@@H](Cc1c[nH]c2ccccc12)C(=O)N[C@@H](Cc1ccccc1)C(=O)N[C@@H](CCCCN)C(=O)N[C@@H](Cc1cnc[nH]1)C(=O)N[C@H](C(N)=O)[C@@H](C)CC` [IHKFWRGGRWFKHI] has an MIC [1] of 16 µM (≈ 29.9 µg/mL), an MIC [7] of 8 µM (≈ 14.9 µg/mL) and an MIC [17] of 32 µM (≈ 59.8 µg/mL). The MIC [18] was 16 µM (≈ 29.9 µg/mL), the MIC [19] was 8 µM (≈ 14.9 µg/mL) and the MIC [20] was 32 µM (≈ 59.8 µg/mL). The MIC [21] was ≥ 64 µM, the MIC [22] was 32 µM (≈ 59.8 µg/mL) and the MIC [23] was 16 µM (≈ 29.9 µg/mL). The MIC (Escherichia coli UB1005) was 8 µM (≈ 14.9 µg/mL).

With `CC[C@H](C)[C@H](N)C(=O)N[C@H](C(=O)N[C@@H](CCCN=C(N)N)C(=O)N[C@@H](CCCN=C(N)N)C(=O)N[C@H](C(=O)N[C@@H](CCCN=C(N)N)C(=O)N[C@@H](CCCN=C(N)N)C(=O)N[C@H](C(=O)N[C@H](C(N)=O)[C@@H](C)CC)[C@@H](C)CC)[C@@H](C)CC)[C@@H](C)CC` [IIRRIRRII] the MIC [24] was ≥ 32 µM, the MIC [7] was 32 µM and 64 µM and the MIC (Candida albicans) was > 64 µM. It also gave an MIC [25] of 4 µM (≈ 4.83 µg/mL), an MIC [18] of 64 µM (≈ 77.3 µg/mL) and an MIC (Escherichia coli 1005) of 16 µM (≈ 19.3 µg/mL). For the same compound, the MIC [26] was 16 µM (≈ 19.3 µg/mL), the MIC [20] was 64 µM (≈ 77.3 µg/mL) and the MIC [22] was 64 µM (≈ 77.3 µg/mL). The MIC [27] was ≥ 64 µM, the MIC [28] was 64 µM (≈ 77.3 µg/mL) and the MIC [11] was > 64 µM. For the same compound, the MIC [29] was ≥ 64 µM.

For `CC(C)C[C@H](NC(=O)[C@H](Cc1ccc(O)cc1)NC(=O)[C@@H]1CCCN1C(=O)[C@@H]1CCCN1C(=O)[C@H](CCCN=C(N)N)NC(=O)[C@@H]1CCCN1C(=O)[C@H](CCCCN)NC(=O)[C@H](CCCCN)NC(=O)[C@@H](N)CCCCN)C(=O)N1CCC[C@H]1C(=O)N[C@@H](CCCN=C(N)N)C(=O)N1CCC[C@H]1C(=O)N[C@@H](CCCN=C(N)N)C(=O)N1CCC[C@H]1C(=O)N1CCC[C@H]1C(=O)O` [KKKPRPPYLPRPRPP], the MIC [20] was > 64 µM, the MIC [30] was 8 µM (≈ 14.6 µg/mL) and the MIC [28] was 0.5 µM (≈ 0.914 µg/mL). The MIC (Escherichia coli D21) was 1 µM (≈ 1.83 µg/mL), the MIC (Bacillus megaterium Bm11) was 16 µM (≈ 29.2 µg/mL) and the MIC (Escherichia coli ML-35) was 2 µM (≈ 3.65 µg/mL).

Compound `NC(=O)[C@H](CCCN=C(N)N)NC(=O)[C@H](Cc1c[nH]c2ccccc12)NC(=O)[C@H](Cc1c[nH]c2ccccc12)NC(=O)[C@H](CCCN=C(N)N)NC(=O)[C@H](CCCN=C(N)N)NC(=O)[C@H](Cc1c[nH]c2ccccc12)NC(=O)[C@H](CCCN=C(N)N)NC(=O)[C@H](CCCN=C(N)N)NC(=O)[C@H](Cc1c[nH]c2ccccc12)NC(=O)[C@H](Cc1c[nH]c2ccccc12)NC(=O)[C@@H](N)CCCN=C(N)N` [RWWRRWRRWWR] has an MIC [24] of 4 µM (≈ 7.54 µg/mL), an MIC (Candida albicans) of 4 µM (≈ 7.54 µg/mL) and an MIC [25] of 2 µM (≈ 3.77 µg/mL). It also gave an MIC [18] of 4 µM (≈ 7.54 µg/mL), an MIC (Escherichia coli 1005) of 8 µM (≈ 15.1 µg/mL) and an MIC [26] of 2 µM (≈ 3.77 µg/mL). The MIC [20] was 4 µM (≈ 7.54 µg/mL), the MIC [22] was 4 µM (≈ 7.54 µg/mL) and the MIC [27] was 16 µM (≈ 30.2 µg/mL). It also gave an MIC [28] of 8 µM (≈ 15.1 µg/mL) and an MIC [11] of 8 µM (≈ 15.1 µg/mL).

With `CC(C)C[C@H](NC(=O)[C@H](Cc1ccccc1)NC(=O)[C@H](CCCCN)NC(=O)[C@@H](N)CO)C(=O)N[C@@H](CO)C(=O)N[C@@H](CCCCN)C(=O)N[C@@H](CCCCN)C(=O)N1CCC[C@H]1C(=O)N[C@@H](CCCCN)C(=O)N[C@@H](CCCCN)C(=O)N[C@@H](CC(C)C)C(=O)N[C@@H](Cc1ccccc1)C(=O)N[C@@H](Cc1c[nH]c2ccccc12)C(=O)N[C@@H](Cc1ccccc1)C(=O)N[C@@H](CCCN=C(N)N)C(=O)N[C@@H](C)C(=O)O` [SKFLSKKPKKLFWFRA] the MIC [31] was ≥ 63.6 µM.
